From patent publication US8673850B2, “PCSK9 inhibitors and methods of use thereof” (Institut de Recherches Cliniques de Montreal, priority 2008, dated 2014)
Each block holds one molecule with its values, some of them ahead of it.

Legend:
PCSK9-LDLR interaction = PCSK9-LDLR interaction (Homo sapiens, UniProt Q8NBP7); assay: AlphaScreen PCSK9-LDLR interaction assay; assay type: binding
Description: AlphaScreen® (Perkin Elmer) streptavidin donor beads were coated with purified biotin-conjugated PCSK9 and AlphaScreen® nickel chelate acceptor beads were coated with purified His6-conjugated LDLR ectodomain. Competition in the AlphaScreen® PCSK9-LDLR interaction assay was measured, in the presence of increasing concentrations of AnxA2-derived peptides, as a reduction of fluorescence.

PCSK9 = biological target: T1, PCSK9 (Homo sapiens, UniProt Q8NBP7); assay: Cell surface PCSK9 immunofluorescence on CHO-K1 cells overexpressing the LDLR; assay type: cell-based; conditions: 1 μg purified PCSK9, 4° C., 5 or 20 μg purified AnxA2
T1 construct: purchased Bristol-Myers Squibb (gift, not bought); host or cells: added to CHO-K1 cells overexpressing the LDLR
T1 sequence (Q8NBP7 153-692): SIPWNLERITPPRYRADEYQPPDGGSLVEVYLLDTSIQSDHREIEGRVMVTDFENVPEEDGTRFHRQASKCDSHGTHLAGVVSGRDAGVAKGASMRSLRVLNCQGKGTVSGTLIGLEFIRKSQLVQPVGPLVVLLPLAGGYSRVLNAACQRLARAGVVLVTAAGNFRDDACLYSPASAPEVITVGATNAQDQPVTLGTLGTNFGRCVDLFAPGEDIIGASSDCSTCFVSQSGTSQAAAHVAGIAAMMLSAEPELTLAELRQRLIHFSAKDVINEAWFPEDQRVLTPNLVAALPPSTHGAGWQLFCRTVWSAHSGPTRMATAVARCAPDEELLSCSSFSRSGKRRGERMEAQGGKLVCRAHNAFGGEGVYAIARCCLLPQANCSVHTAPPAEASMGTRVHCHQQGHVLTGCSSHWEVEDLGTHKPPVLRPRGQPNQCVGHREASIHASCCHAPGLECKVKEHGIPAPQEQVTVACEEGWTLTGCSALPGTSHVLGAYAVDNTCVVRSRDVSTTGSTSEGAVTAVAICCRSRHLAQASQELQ
T1 sequence (Q8NBP7 31-152 partner limits assumed): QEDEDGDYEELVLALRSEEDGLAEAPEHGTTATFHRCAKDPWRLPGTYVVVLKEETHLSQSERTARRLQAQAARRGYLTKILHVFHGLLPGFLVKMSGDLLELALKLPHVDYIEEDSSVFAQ
Description: (§1) For immuno-cytochemistry, cells were plated on glass bottom culture dishes (MatTek) and then transfected the following day. Twenty-four hours post-transfection, the cells were washed with DMEM, incubated for an additional 20 h without serum and then washed 3 times with PBS. Cell surface labelings were made under non-permeabilizing conditions by fixation with 3.7% formaldehyde for 10 min at room temperature. Cells were then washed in PBS, incubated for 5 min in 150 mM glycine, washed once in PBS and incubated for 30 min in 1% bovine serum albumin in PBS. Cells were incubated overnight at 4° C. with primary antibodies and then washed 4× with PBS. […] After several washes in PBS, cells were covered with 5% 1,4-diazabicyclo[2.2.2]octane (Sigma) in PBS/glycerol 90% and immunofluorescence analyses were performed with a Zeiss LSM-510 confocal microscope.
Finally, addition of 1 μg of purified PCSK9 to CHO-K1 cells overexpressing the LDLR at 4° C. […] Therefore, it was deduced that because of its interaction with the CHRD AnxA2 reduces the level of cell surface PCSK9 likely bound to the LDLR. Without being bound by this hypothesis, PCSK9's reduced binding to LDLR induces a more rapid internalization of PCSK9 into the cell.

PCSK9-V5 [1] = biological target: T2, PCSK9-V5 (Homo sapiens, UniProt Q8NBP7); assay: Hexa-His pull-down assay; assay type: binding; set-up: made in house; host or cells: CHO-K1 cells (conditioned medium, not purified); conditions: 20 μg protein immobilized on cobalt chelate resin
Description: 20 μg of purified AnxA2-(His)6 or AnxA1-(His)6 or no proteins (for negative control) were immobilized onto a cobalt chelate resin (Thermo Scientific). The resin was then washed several times with 40 mM immidazole and incubated overnight at 4° C. with 800 μl of conditioned media from PCSK9-V5-transfected CHO-K1 cells containing 40 mM immidazole. The resin was then washed several times with immidazole (40 mM), heated in reducing Laemmli sample buffer and centrifuged. Supernatants were analyzed by Western blot as described above using the anti-V5-HRP or anti-His-HRP antibodies.
Target sequence in this assay (Q8NBP7 153-692): as the sequence (Q8NBP7 153-692) above
Target sequence in this assay (Q8NBP7 31-152 partner limits assumed): as the sequence (Q8NBP7 31-152 partner limits assumed) above

[2] = test system: PCSK9-induced LDLR degradation; assay: LDLR Western blot of HepG2 cells incubated with PCSK9 conditioned media with or without purified AnxA2; assay type: cell-based, human
Description: (§2) HepG2, HuH7, COS-1, BSC40 and HEK293 cell were grown in Dulbecco's modified Eagle's medium (DMEM) with 10% fetal bovine serum (FBS; Gibco), whereas CHO-K1 and CHO-K1 mutant Pgsd-677 cells that lack heparan sulfate proteoglycans^26 were grown in Ham's F12:DMEM (50:50) media with 10% FBS. Y1 mouse adrenal cells were grown in F12K medium with 15% horse serum and 2.5% FBS. All cells were maintained at 37° C. under 5% CO2. At 80-90% confluence, HuH7 and CHO-K1 cells were transiently transfected with Lipofectamine™ 2000 (Invitrogen), HEK293 cells were transfected with Effectene™ (Qiagen) and HepG2 cells were transfected with Fugene™ HD (Roche). […] For analysis of the various AnxA2 mutants in HEK293 cells, 24 h post-transfection, the cells were washed and then incubated for another 24 h in complete medium containing 50 μM of the proteasome inhibitor ALLN (Calbiochem). Stable transfectants of shRNA-AnxA2 were obtained in HuH7 cells following puromycin selection.
Western blotting experiments were made on samples that were reduced in Laemmli buffer, heated and resolved on 8% glycine SDS-PAGE gels. Separated proteins were then electro-transferred onto nitrocellulose, and probed with HRP-conjugated anti-V5 or anti-HA tags or with primary antibodies. […] Quantitation of band intensity was done with the ImageJ™ software version 1.37 (Wayne Rasband, National Institutes of Health, Bethesda, Md.). […]

PCSK9-V5 [3] = biological target: T2, PCSK9-V5; assay: Far Western blot with PCSK9-V5 conditioned media; assay type: binding; set-up: made in house; host or cells: CHO-K1 cells (conditioned medium, not purified)
Description: Lysates (20 to 30 μg protein), media or purified AnxA2-(His)6 were heated in reducing or non-reducing Laemmli sample buffer, resolved by SDS-PAGE on 8% glycine gels and electro-transferred onto nitrocellulose membranes (GE Healthcare). Following 1 h incubation in 5% skim milk in Tris-Buffered Saline-0.1% Tween (TBST), membranes where incubated with conditioned media of CHO-K1 cells overexpressing either an empty vector (pIRES-V5), PC5A-V5, CHRD-V5, pIRES-D374Y, PCSK9-V5 or its V5-tagged mutants, or incubated with purified AnxA2-(His)6 for 3 h at room temperature. […] For competition experiments, 10 μg of His-tagged PCSK9 or CHRD were added to the PCSK9-V5 media before Far Western blotting. For PCSK9 binding requirements with the ˜33 kDa protein, 1M NaCl, 10 mg/ml heparin, 1M NaCl+10 mg/ml heparin, or 100 mM EDTA were added to the PCSK9-V5 conditioned media used for Far Western blotting.
Wild type human Annexin A2 (AnxA2) (ATCC #MGC-2257) and Annexin A1 (AnxA1) (ATCC #MGC-5095) were purchased from ATCC and subcloned into NheI/SacI digested pIRES2-EGFP vector. An HA epitope ([…]) was fused by PCR mutagenesis at the C-terminus of both AnxA1 and AnxA2. Two-steps PCRs were performed on AnxA2 cDNA to introduce point mutations (N62Q; S64A; K28S+D34N+E36S; R37S+E43H+K47M; 77RRTKK (SEQ ID NO: 26)>AATAK (SEQ ID NO: 27); ^77RRTKK (SEQ ID NO: 26)>AATAA (SEQ ID NO: 28); ^77RRTKKELASALK (SEQ ID NO: 29)>^77AATAAELASALA (SEQ ID NO: 30); 80KKELA (SEQ ID NO: 31)>GKPLD (SEQ ID NO: 32)), or amino acid (aa) deletions (Δ2-24, aa 2-24; ΔR1, aa 37-108; ΔR2, aa 109-192; ΔR3, aa 193-268; ΔR4, aa 269-339; Δ25-36, aa 25-36; Δ37-48, aa 37-48; Δ49-61, aa 49-61; Δ62-75, aa 62-75; Δ37-66, aa 37-66; Δ74-88, aa 74-88; Δ82-88, aa 82-88; Δ89-101, aa 89-101; Δ102-108, aa 102-108) into pIRES2-AnxA2-EGFP vector (see Table 3 above). In addition, using PCR, the AnxA2 segment aa 49-75 was swapped with the corresponding AnxA1 segment aa 58-84 [AnxA1 (aa 58-84)>AnxA2 (aa 49-75)]. Similar swaps were performed for the corresponding AnxA2 sequence with AnxA1 (AnxA1>AnxA2: aa 25-27; aa 28-30; aa 31-33; aa 34-36; aa 37-39; aa 40-42; aa 43-45; aa 46-48; aa 49-75; aa 49-61; aa 62-75). All final cDNA constructs were verified by DNA sequencing.
Target sequence in this assay (Q8NBP7 153-692): as the sequence (Q8NBP7 153-692) above
Target sequence in this assay (Q8NBP7 31-152 partner limits assumed): as the sequence (Q8NBP7 31-152 partner limits assumed) above

LDLR [4] = assay: LDLR Western blot of HepG2 cells transfected with AnxA2; assay type: cell-based, human
Description: as §2
(§3) Western blotting experiments were made on samples that were reduced in Laemmli buffer, heated and resolved on 8% glycine SDS-PAGE gels. Separated proteins were then electro-transferred onto nitrocellulose, and probed with HRP-conjugated anti-V5 or anti-HA tags or with primary antibodies. […] Quantitation of band intensity was done with the ImageJ™ software version 1.37 (Wayne Rasband, National Institutes of Health, Bethesda, Md.).

LDLR [5] = assay: Cell surface LDLR immunofluorescence of transfected HepG2 cells; assay type: cell-based, human
Description: as §1

[6] = test system: PCSK9-enhanced LDLR degradation; assay: LDLR Western blot of CHO-K1 cells co-transfected with PCSK9 and AnxA2; assay type: cell-based; conditions: PCSK9 alone reduced LDLR by ~30%
Description: as §2, §3

LDLR [7] = assay: LDLR Western blot of transfected HEK293 cells; assay type: cell-based, human; conditions: HEK293 cells (negligible PCSK9), with or without p11
Description: as §2, §3

PCSK9-V5 [8] = biological target: T2, PCSK9-V5; assay: Co-immunoprecipitation in co-transfected CHO-K1 cells; assay type: binding; set-up: expressed in transfected cells; host or cells: CHO-K1 cells co-transfected with AnxA1-HA, AnxA2-HA or AnxA2-HA and p11; conditions: co-expression in CHO-K1 cells
Description: For immunoprecipitation cell lysates were incubated overnight at 4° C. with anti-V5-agarose beads (Sigma) and washed 5 times with cold lysis buffer.
Target sequence in this assay (Q8NBP7 153-692): as the sequence (Q8NBP7 153-692) above

Sequence of PCSK9-LDLR interaction (Q8NBP7 153-692): as above
Sequence of PCSK9-LDLR interaction (Q8NBP7 31-152 partner limits assumed): as the sequence (Q8NBP7 31-152 partner limits assumed) above

Molecule: peptide extending from amino acid 49 to 97: shorter AnxA2-derived peptide extending from amino acid 49 to 97 (KGVDEVTIVNILTNRSNAQRQDIAFAYQRRTKKELASALKSALSGHLET; HOMO SAPIENS)
inhibitory activity on the PCSK9-LDLR ectodomain interaction (PCSK9-LDLR interaction): inhibits the interaction between PCSK9 and the ectodomain of LDLR however to a lesser extent

B1: AnxA1: human Annexin A1, closely related family member used as control (protein, UniProt P04083 2-346, looked up)
Annexin A1: AMVSEFLKQAWFIENEEQEYVQTVKSSKGGPGSAVSPYPTFNPSSDVAALHKAIMVKGVDEATIIDILTKRNNAQRQQIKAAYLQETGKPLDETLKKALTGHLEEVVLALLKTPAQFDADELRAAMKGLGTDEDTLIEILASRTNKEIRDINRVYREELKRDLAKDITSDTSGDFRNALLSLAKGDRSEDFGVNEDLADSDARALYEAGERRKGTDVNVFNTILTTRSYPQLRRVFQKYTKYSKHDMNKVLDLELKGDIEKCLTAIVKCATSKPAFFAEKLHQAMKGVGTRHKALIRIMVSRSEIDMNDIKAFYQKMYGISLCQAILDETKGDYEKILVALCGGN
co-immunoprecipitation with PCSK9-V5 (PCSK9-V5 [8]): not
levels of endogenous LDLR (LDLR [7]): None of these treatments affected the levels of endogenous LDLR

B2: AnxA1-(His)6: purified His-tagged Annexin A1 purchased from EMD biosciences (protein)
chain: MAMVSEFLKQAWFIENEEQEYVQTVKSSKGGPGSAVSPYPTFNPSSDVAALHKAIMVKGVDEATIIDILTKRNNAQRQQIKAAYLQETGKPLDETLKKALTGHLEEVVLALLKTPAQFDADELRAAMKGLGTDEDTLIEILASRTNKEIRDINRVYREELKRDLAKDITSDTSGDFRNALLSLAKGDRSEDFGVNEDLADSDARALYEAGERRKGTDVNVFNTILTTRSYPQLRRVFQKYTKYSKHDMNKVLDLELKGDIEKCLTAIVKCATSKPAFFAEKLHQAMKGVGTRHKALIRIMVSRSEIDMNDIKAFYQKMYGISLCQAILDETKGDYEKILVALCGGNHHHHHH
PCSK9-V5 bound in pull-down (PCSK9-V5 [1]): does not

Further lines, with some results ahead:

inhibition of the PCSK9-LDLR interaction (PCSK9-LDLR interaction; 10 uM (not shown)): up to 90%
Molecule: GSVKAYTNFDAERDALNIETAIKTKGVDEVTIVNILTNRSNAQRQDIAFAYQRRTKKELASALKSALSGHLET [No 896970, 73-mer AnxA2 R1 peptide extending from amino acids 25 to 97]

cell surface localization of PCSK9 (PCSK9): reduced
PCSK9 binding to purified protein by Far Western blot (PCSK9-V5 [3]; reducing and non-reducing conditions): binds in a dose-dependant manner
Molecule: AnxA2-(His)6: purified His-tagged Annexin A2 purchased from EMD biosciences
PCSK9-V5 bound in pull-down (PCSK9-V5 [1]): bound PCSK9 and its furin cleaved form (PCSK9-Δ218)
level of LDLR ([2]; HepG2, media of non-transfected cells, endogenous PCSK9): increased the level of LDLR
PCSK9-enhanced LDLR degradation ([2]; HepG2, ~20 h, PCSK9 conditioned media plus 5 ug/ml purified AnxA2-(His)6, ~30% without AnxA2): ~10%

PCSK9-V5 binding by Far Western blot (PCSK9-V5 [3]; lysates of cells overexpressing the construct): specifically binds
Molecule: AnxA2: wild type human Annexin A2 isoform 2, expressed in cells by transfection
increase of LDLR level (LDLR [4]; HepG2, AnxA2 co-transfected with p11): ~90%
increase of LDLR level (LDLR [4]; HepG2 transfected with AnxA2 alone): ~40%
labelling intensity of cell surface LDLR (LDLR [5]; HepG2, AnxA2 alone or together with p11, vs pIRES control): strong increase
LDLR-lowering effect of WT-PCSK9 or PCSK9-D374Y (LDLR [5]; HepG2, co-expression with AnxA2): prevented their LDLR-lowering effect
LDLR level [6]: returned to that of the control
levels of endogenous LDLR (LDLR [7]): None of these treatments affected the levels of endogenous LDLR
